# ChEMBL document CHEMBL5625276, “Antascomicin B stabilizes FKBP51-Akt1 complexes as a molecular glue” (Bioorg Med Chem Lett, 2024)
# Activity calls are given as the source filed them. The calls are words filed in the database; no cut-off is given here.
# Tests used:
# [1] = target: T1, Peptidyl-prolyl cis-trans isomerase FKBP5 (Homo sapiens, UniProt Q13451); assay: Binding affinity to human FKBP51 FK1 domain expressed in Escherichia coli BL21 DE3 Gold assessed as dissociation constant incubated for 30 mins by competitive fluorescence polarization assay
# T1 sequence (Q13451 whole entry): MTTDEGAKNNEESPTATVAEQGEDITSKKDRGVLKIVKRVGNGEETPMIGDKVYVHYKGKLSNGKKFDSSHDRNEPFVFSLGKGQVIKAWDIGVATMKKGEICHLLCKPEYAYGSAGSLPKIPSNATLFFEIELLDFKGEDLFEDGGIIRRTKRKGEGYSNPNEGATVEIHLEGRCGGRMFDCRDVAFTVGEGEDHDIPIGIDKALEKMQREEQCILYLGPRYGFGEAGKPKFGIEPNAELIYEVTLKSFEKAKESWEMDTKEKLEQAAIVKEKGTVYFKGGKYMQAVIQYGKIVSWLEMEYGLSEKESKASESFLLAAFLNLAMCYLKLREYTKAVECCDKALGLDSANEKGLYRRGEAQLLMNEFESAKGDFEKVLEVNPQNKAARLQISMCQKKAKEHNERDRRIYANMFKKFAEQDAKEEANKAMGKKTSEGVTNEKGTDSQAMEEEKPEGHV
# HEK293T [2] = assay: Stabilization of FLAG tagged human FKBP51 P120pBpa incorporation mutant/human Akt complex in HEK293T cells assessed as induction of photocrosslinking adduct formation at 1 uM pretreated with compound followed by UV irradiation for 30 mins by immunoprecipitation based Western blot analysis; type: cell-based
# [3] = target: T2, Peptidyl-prolyl cis-trans isomerase FKBP4 (Homo sapiens, UniProt Q02790); assay: Binding affinity to human FKBP52 FK1 domain expressed in Escherichia coli BL21 DE3 Gold assessed as dissociation constant incubated for 30 mins by competitive fluorescence polarization assay
# T2 sequence (Q02790 whole entry): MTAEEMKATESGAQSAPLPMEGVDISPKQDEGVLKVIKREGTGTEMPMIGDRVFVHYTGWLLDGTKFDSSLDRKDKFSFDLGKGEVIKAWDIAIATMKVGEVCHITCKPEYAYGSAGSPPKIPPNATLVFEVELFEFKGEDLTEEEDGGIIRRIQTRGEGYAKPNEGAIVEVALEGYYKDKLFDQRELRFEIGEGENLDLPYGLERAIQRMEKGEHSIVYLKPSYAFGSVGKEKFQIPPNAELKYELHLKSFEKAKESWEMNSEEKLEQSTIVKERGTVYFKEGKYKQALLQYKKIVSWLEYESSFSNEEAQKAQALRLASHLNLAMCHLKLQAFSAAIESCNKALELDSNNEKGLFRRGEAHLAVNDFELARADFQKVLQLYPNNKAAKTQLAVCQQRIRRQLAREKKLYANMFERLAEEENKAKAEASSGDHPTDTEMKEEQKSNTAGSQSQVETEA
# HEK293T [4] = assay: Stabilization of FLAG tagged human FKBP51 K52pBpa incorporation mutant/human Akt complex in HEK293T cells assessed as increase in photocrosslinking at 1 uM pretreated with compound followed by UV irradiation for 30 mins by immunoprecipitation based Western blot analysis; type: cell-based
# HEK293T [5] = assay: Stabilization of FLAG-tagged human FKBP51 K52pBpa incorporation mutant/human Akt T308A/S473A mutant in HEK293T cells assessed as photocrosslinking adduct formation at 1 uM pretreated with compound followed by UV irradiation for 30 mins by immunoprecipitation based Western blot analysis; type: cell-based
# HEK293T [6] = assay: Stabilization of FLAG-tagged human FKBP51 K52pBpa incorporation mutant/human Akt S473A mutant in HEK293T cells assessed as photocrosslinking adduct formation at 1 uM pretreated with compound followed by UV irradiation for 30 mins by immunoprecipitation based Western blot analysis; type: cell-based
# HEK293T [7] = assay: Stabilization of FLAG-tagged human FKBP51 K52pBpa incorporation mutant/human Akt S473D mutant in HEK293T cells assessed as photocrosslinking adduct formation at 1 uM pretreated with compound followed by UV irradiation for 30 mins by immunoprecipitation based Western blot analysis; type: cell-based
# [8] = target: Peptidyl-prolyl cis-trans isomerase FKBP1B (Homo sapiens, UniProt P68106); assay: Binding affinity to human FKBP12.6 expressed in Escherichia coli BL21 DE3 Gold assessed as dissociation constant incubated for 30 mins by competitive fluorescence polarization assay
# Chain of Peptidyl-prolyl cis-trans isomerase FKBP1B (P68106 whole entry): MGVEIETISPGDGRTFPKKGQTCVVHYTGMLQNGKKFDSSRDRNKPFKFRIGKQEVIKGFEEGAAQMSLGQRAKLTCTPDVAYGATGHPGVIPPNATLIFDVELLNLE
# HEK293T [9] = assay: Stabilization of FLAG-tagged human HSP90 binding incompetent FKBP51 K352A/R356A mutant/human Akt complex in HEK293T cells assessed as increase in Akt co-immunoprecipitation at 1 uM by Western blot analysis; type: cell-based
# HEK293T [10] = assay: Stabilization of FLAG-tagged human FKBP51 K52pBpa incorporation mutant/human Akt T308A mutant in HEK293T cells assessed as photocrosslinking adduct formation at 1 uM pretreated with compound followed by UV irradiation for 30 mins by immunoprecipitation based Western blot analysis; type: cell-based
# HEK293T [11] = assay: Stabilization of FLAG tagged human FKBP51 K52pBpa incorporation mutant/human Akt complex in HEK293T cells assessed as increase in Akt1 coimmunoprecipitation at 1 uM in absence of UV irradiation by immunoprecipitation based Western blot analysis; type: cell-based
# HEK293T [12] = assay: Stabilization of FLAG-tagged human FKBP51 K52pBpa incorporation mutant/wild type Akt in HEK293T cells assessed as photocrosslinking adduct formation at 1 uM pretreated with compound followed by UV irradiation for 30 mins by immunoprecipitation based Western blot analysis; type: cell-based
# HEK293T [13] = assay: Stabilization of FLAG-tagged human FKBP51 K52pBpa incorporation mutant/human Akt T308D mutant in HEK293T cells assessed as photocrosslinking adduct formation at 1 uM pretreated with compound followed by UV irradiation for 30 mins by immunoprecipitation based Western blot analysis; type: cell-based
# HEK293T [14] = assay: Stabilization of FLAG tagged human FKBP51 E75pBpa incorporation mutant/human Akt complex in HEK293T cells assessed as increase in photocrosslinking pretreated with compound followed by UV irradiation by immunoprecipitation based Western blot analysis; type: cell-based
# HEK293T [15] = assay: Stabilization of FLAG tagged human FKBP51 N74pBpa incorporation mutant/human Akt complex in HEK293T cells assessed as increase in photocrosslinking pretreated with compound followed by UV irradiation by immunoprecipitation based Western blot analysis; type: cell-based
# HEK293T [16] = assay: Stabilization of FLAG tagged human FKBP51 P120pBpa incorporation mutant/human Akt complex in HEK293T cells assessed as increase in photocrosslinking at 1 uM pretreated with compound followed by UV irradiation for 30 mins by immunoprecipitation based Western blot analysis; type: cell-based
# HEK293T [17] = assay: Stabilization of FLAG-tagged wild type human FKBP51/human Akt complex in HEK293T cells assessed as increase in Akt co-immunoprecipitation at 1 uM by Western blot analysis; type: cell-based
# [18] = target: Peptidyl-prolyl cis-trans isomerase FKBP1A (Homo sapiens, UniProt P62942); assay: Binding affinity to human FKBP12 expressed in Escherichia coli BL21 DE3 Gold assessed as dissociation constant incubated for 30 mins by competitive fluorescence polarization assay
# Chain of Peptidyl-prolyl cis-trans isomerase FKBP1A (P62942 whole entry): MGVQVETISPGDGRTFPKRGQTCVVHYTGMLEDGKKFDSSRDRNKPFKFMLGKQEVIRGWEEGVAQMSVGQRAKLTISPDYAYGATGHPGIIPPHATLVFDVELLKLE
# HEK293T [19] = assay: Stabilization of FLAG tagged human FKBP51 P120pBpa incorporation mutant/human Akt complex in HEK293T cells assessed as increase in Akt1 coimmunoprecipitation at 1 uM in absence of UV irradiation by immunoprecipitation based Western blot analysis; type: cell-based
SMILES,Kd [1],Activity (HEK293T [2]),Kd [3],Activity (HEK293T [4]),Activity (HEK293T [5]),Activity (HEK293T [6]),Activity (HEK293T [7]),Kd [8],Activity (HEK293T [9]),Activity (HEK293T [10]),Activity (HEK293T [11]),Activity (HEK293T [12]),Activity (HEK293T [13]),Activity (HEK293T [14]),Activity (HEK293T [15]),Activity (HEK293T [16]),Activity (HEK293T [17]),Kd [18],Activity (HEK293T [19])
CO[C@H]1C[C@@H]2CC[C@@H](C)[C@@](O)(O2)C(=O)C(=O)N2CCCC[C@H]2C(=O)O[C@H]([C@H](C)C[C@@H]2CC[C@@H](O)[C@H](OC)C2)CC(=O)[C@H](C)/C=C(\C)[C@@H](O)[C@@H](OC)C(=O)[C@H](C)C[C@H](C)/C=C/C=C/C=C/1C [SIROLIMUS],8.5 nM,inactive,12 nM,,,,,,,,,,,,,,,,
C=CC[C@@H]1/C=C(\C)C[C@H](C)C[C@H](OC)[C@H]2O[C@@](O)(C(=O)C(=O)N3CCCC[C@H]3C(=O)O[C@H](/C(C)=C/[C@@H]3CC[C@@H](O)[C@H](OC)C3)[C@H](C)[C@@H](O)CC1=O)[C@H](C)C[C@@H]2OC [TACROLIMUS ANHYDROUS],75.9 nM,inactive,,,,,,,,,,,,,,,,,
C[C@@H]1/C=C/CC/C=C/C(=O)[C@H](C)[C@@H]2CC[C@@H](C)[C@@](O)(O2)C(=O)C(=O)N2CCCC[C@H]2C(=O)O[C@H]([C@H](C)C[C@@H]2CC[C@@H](O)[C@H](O)[C@H]2O)CC1,6.7 nM,Active,1.2 nM,Active,Active,Active,Active,0.38 nM,Active,Active,Active,Active,Active,Active,Active,Active,Active,0.03 nM,Active
